For two compounds, Kd results are on record in patent US11802131B2, “Glutarimides for medical treatment” (C4 Therapeutics, Inc., priority 2017, dated 2023).

SMILES strings stand for the structures.

The target in this assay is hCereblon(M1-L442)_hDDB1(M1-H1140) (Homo sapiens (Human), UniProt Q96SW2). The assay can be described thus: Fluorescence direct binding protocol (tryptophan fluorescence titration). As to conditions: 20° C., excited at 280 nm, recorded at 340 nm, assay buffer 50 mM Hepes 7.4 200 mM NaCl; read-out: Fluorescence h-Cereblon_DDB1 Mean Kd_EQ.
Sequence of hCereblon(M1-L442)_hDDB1(M1-H1140) (Q96SW2 whole entry): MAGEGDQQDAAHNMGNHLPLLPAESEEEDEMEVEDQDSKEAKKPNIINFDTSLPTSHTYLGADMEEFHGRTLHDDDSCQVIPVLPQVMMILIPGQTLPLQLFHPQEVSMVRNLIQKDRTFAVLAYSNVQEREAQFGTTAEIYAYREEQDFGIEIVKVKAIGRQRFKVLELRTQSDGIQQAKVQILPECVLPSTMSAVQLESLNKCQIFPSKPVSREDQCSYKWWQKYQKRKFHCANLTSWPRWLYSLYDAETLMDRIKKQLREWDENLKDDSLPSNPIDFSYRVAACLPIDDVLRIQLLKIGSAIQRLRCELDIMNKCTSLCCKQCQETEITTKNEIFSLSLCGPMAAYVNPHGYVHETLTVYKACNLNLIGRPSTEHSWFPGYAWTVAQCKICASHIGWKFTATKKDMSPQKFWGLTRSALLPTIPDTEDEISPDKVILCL
Sequence of hCereblon(M1-L442)_hDDB1(M1-H1140) (Q16531 whole entry partner): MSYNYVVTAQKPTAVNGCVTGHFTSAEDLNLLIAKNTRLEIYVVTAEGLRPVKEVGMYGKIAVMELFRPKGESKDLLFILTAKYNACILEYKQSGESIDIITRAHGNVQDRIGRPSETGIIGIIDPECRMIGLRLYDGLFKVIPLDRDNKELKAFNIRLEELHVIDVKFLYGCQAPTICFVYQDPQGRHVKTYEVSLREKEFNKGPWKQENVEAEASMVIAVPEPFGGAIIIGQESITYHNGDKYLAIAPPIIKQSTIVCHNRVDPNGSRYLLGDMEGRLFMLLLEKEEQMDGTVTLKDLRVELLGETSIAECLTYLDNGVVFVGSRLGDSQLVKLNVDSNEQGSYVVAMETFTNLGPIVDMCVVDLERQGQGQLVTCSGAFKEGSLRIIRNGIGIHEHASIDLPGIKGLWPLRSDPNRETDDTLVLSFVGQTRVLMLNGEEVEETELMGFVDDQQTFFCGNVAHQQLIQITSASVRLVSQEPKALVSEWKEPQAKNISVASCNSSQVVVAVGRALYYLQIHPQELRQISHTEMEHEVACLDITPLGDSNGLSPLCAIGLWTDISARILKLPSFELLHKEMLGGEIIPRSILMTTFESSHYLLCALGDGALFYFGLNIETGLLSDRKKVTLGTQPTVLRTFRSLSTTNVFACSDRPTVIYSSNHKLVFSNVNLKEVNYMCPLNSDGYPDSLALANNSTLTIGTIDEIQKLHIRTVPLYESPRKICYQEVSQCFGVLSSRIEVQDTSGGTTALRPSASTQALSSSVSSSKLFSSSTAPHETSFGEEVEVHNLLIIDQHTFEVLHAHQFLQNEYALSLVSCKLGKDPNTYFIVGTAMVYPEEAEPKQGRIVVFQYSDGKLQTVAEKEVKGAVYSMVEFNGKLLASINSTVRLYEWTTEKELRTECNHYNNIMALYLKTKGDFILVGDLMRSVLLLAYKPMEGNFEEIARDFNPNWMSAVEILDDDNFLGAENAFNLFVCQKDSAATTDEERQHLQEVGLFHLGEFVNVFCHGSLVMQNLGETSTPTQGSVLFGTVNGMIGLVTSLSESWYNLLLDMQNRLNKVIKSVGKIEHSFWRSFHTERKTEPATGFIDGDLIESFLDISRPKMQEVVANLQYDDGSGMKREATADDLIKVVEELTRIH

For the compound `Cc1sc2c(c1C)C(c1ccc(Cl)cc1)=N[C@@H](CC(=O)NCCCCCC(=O)N1CC[C@H](C(=O)N[C@@H]3CCC(=O)NC3=O)c3ccccc31)c1nnc(C)n1-2` [Example B, (4S)-1-[6-[[2-[(9S)-7-(4-Chlorophenyl)-4,5,13-trimethyl-3-thia-1,8,11,12-tetrazatricyclo[8.3.0.02,6]trideca-2(6),4,7,10,12-pentaen-9-yl]acetyl]amino]hexanoyl]-N-[(3R)-2,6-dioxo-3-piperidyl]-3,4-dihydro-2H-quinoline-4-carboxamide], the Kd turned out to be 37 nM.

For `Cc1sc2c(c1C)C(c1ccc(Cl)cc1)=N[C@@H](CC(=O)NCCOCCOCCOCC(=O)N1CC[C@@H](C(=O)N[C@H]3CCC(=O)NC3=O)c3ccccc31)c1nnc(C)n1-2` [Example C, (4R)-1-[2-[2-[2-[2-[[2-[(9S)-7-(4-Chlorophenyl)-4,5,13-trimethyl-3-thia-1,8,11,12-tetrazatricyclo[8.3.0.02,6]trideca-2(6),4,7,10,12-pentaen-9-yl]acetyl]amino]ethoxy]ethoxy]ethoxy]acetyl]-N-[(3S)-2,6-dioxo-3-piperidyl]-3,4-dihydro-2H-quinoline-4-carboxamide], the Kd stood at 8 nM.
